From BindingDB's records for doi:10.1021/jm801242y (Boehringer Ingelheim Pharmaceuticals, 2009)

Biological target: Serine/threonine-protein kinase pim-2 (Homo sapiens, UniProt Q9P1W9)
Assay: Pim Kinase Dose-Response Assay
Details: pH 7.5; 22 °C
Experimental: The activity of Pim kinase was measured in a homogeneous luciferase assay using GST-Pim, biotinylated peptide substrate and a luciferin-luciferase detection reagent to quantify residual ATP. Test compounds were serially diluted for the 10-point concentration response. […] Following incubation, ATP detection reagent was added to the assay plates and the relative light unit (RLU) signal was measured on the Analyst (Molecular Devices) in luminescence mode. The RLU signals were converted to percent of control in dose-response curves. The IC50 was determined as the inflection point parameter.

Sequence of Serine/threonine-protein kinase pim-2 (Q9P1W9 whole entry): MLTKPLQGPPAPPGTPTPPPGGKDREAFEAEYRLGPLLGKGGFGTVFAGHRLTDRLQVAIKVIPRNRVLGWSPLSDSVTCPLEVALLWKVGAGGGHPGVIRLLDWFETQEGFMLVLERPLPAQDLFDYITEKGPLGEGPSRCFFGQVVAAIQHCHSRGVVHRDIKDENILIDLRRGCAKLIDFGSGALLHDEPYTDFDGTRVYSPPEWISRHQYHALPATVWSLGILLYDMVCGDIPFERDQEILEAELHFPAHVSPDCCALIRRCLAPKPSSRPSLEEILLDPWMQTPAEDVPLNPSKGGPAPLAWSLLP

CN1CCCN(c2cncc(-c3cccc(C=Cc4nnn[nH]4)c3)n2)CC1 [1-methyl-4-(6-{3-[(E)-2-(1H-1,2,3,4-tetrazol-5-yl)ethenyl]phenyl}pyrazin-2-yl)-1,4-diazepane]
IC50: 160 nM

CN1CCCN(c2cnccn2)CC1 [1-methyl-4-(pyrazin-2-yl)-1,4-diazepane]
IC50: > 8000 nM
